What was measured:
[1] = test system: TGF-α expression in oval cells; experiment: Induction of TGF-α positive oval cells of a rat by 3′-MeDAB, anti TGF-α immunohistological staining of liver; type: in vivo
Method: Male Fischer rats (F344/N Slc, 6-week old) were used as an animal, and the rats were given with solid feed prepared to contain a hepatic chemical carcinogen 3′-MeDAB in a ratio of 0.06% for four weeks to induce oval cells. NIK-333 was suspended in soybean oil, and a dose of 80 mg/kg was orally administered to each rat for four weeks (once/a day) along with the administration of 3′-MeDAB. To a control group, soybean oil (5 mL/kg) was orally administered. After 4 weeks from the start of the administration of 3′-MeDAB, livers were extirpated under anesthesia. The livers were subjected to 10% formalin fixation and paraffin embedding, and further to immunological staining by using an anti TGF-α antibody. TGF-α expression levels were analyzed under microscope.
FIGS. 1 to 3 are photographs showing inhibitory effects on induction of TGF-α positive oval cells induced by the four-week administration of 3′-MeDAB, when 80 mg/kg/day of NIK-333 was simultaneously administered for four weeks (immunohistological staining by using the anti TGF-α antibody). Similar observations were obtained in other animals which were analyzed at the same time.

[2] = test system: hepatoma; details: clinical, cited from earlier work
[3] = test system: TGF-α expression in non-tumor hepatic tissue; experiment: TGF-α expression in non-tumor hepatic tissue of a rat after DEN administration, anti TGF-α immunohistological staining; type: in vivo; details: 80 mg/kg/day orally for 14 weeks from one week after 5-week DEN; control strongly positive; FIGS. 6 and 9
Method: Male Fischer rats (F344/N Slc, 6-week old) were used as an animal, and the rats were administered with a hepatic chemical carcinogen DEN for 5 weeks in a form of drinking water (concentration: 40 ppm), and then bred with normal drinking water for successive 15 weeks to induce hepatocellular carcinoma. NIK-333 was suspended in soybean oil, and a dose of 80 mg/kg was orally administered to each rat for 14 weeks (once/a day) from one week after the end of the administration of DEN. To a control group, soybean oil (5 mL/kg) was orally administered. After 20 weeks from the start of the administration of DEN, livers were extirpated under anesthesia. The livers were subjected to 10% formalin fixation and paraffin embedding, and further to immunological staining by using an anti TGF-α antibody. TGF-α expression levels were analyzed under microscope.
FIGS. 4 to 6 are photographs showing inhibitory effects on TGF-α expression in a non-tumor hepatic tissue, when the administration was ceased for one week after the 5-week treatment with DEN, and then 80 mg/kg/day of NIK-333 was administered for 14 weeks (immunohistological staining by using an anti TGF-α antibody). Similar observations were obtained in other animals which were analyzed at the same time.

[4] = test system: TGF-α expression in oval cells; experiment: TGF-α expression in oval cells in a rat induced by D-galactosamine hydrochloride, anti TGF-α immunohistological staining; type: in vivo; details: 200 mg/kg/day orally for four days; control strongly positive; FIG. 15
Method: Male SD rats (Crj/CD (SD), 6-week old) were used as an animal, and D-galactosamine hydrochloride (5 ml/kg) prepared as 200 mg/mL with physiological saline was intraperitoneally administered once to each rat to induce oval cells. NIK-333 was suspended in soybean oil, and a dose of 200 mg/kg was orally administered to each rat for 1 to 6 days. To the control group, soybean oil (2 mL/kg) was orally administered. From the next day to 7 days after the start of the administration, the livers were extirpated under anesthesia with passage of time. The livers were subjected to 10% formalin fixation and paraffin embedding, and further to immunological staining by using an anti TGF-α antibody. TGF-α expression levels were analyzed under microscope.
FIGS. 13 to 15 are photographs showing inhibitory effects on TGF-α expression in oval cells induced by the administration of D-galactosamine hydrochloride, when 200 mg/kg/day of NIK-333 was administered for four days (immunohistological staining using an anti TGF-α antibody). Similar observations were obtained in other animals which were analyzed at the same time.

## CC(C)=CCC/C(C)=C/CC/C(C)=C/C=C/C(C)=C/C(=O)O [NIK-333, (2E,4E,6E,10E)-3,7,11,15-tetramethyl-2,4,6,10,14-hexadecapentaenoic acid]
[1]; 80 mg/kg/day orally for four weeks along with 0.06% 3′-MeDAB feed, control strongly positive, FIG. 3
  TGF-α observation of oval cells expressed with 3′-MeDAB: weakly positive
[1]; 80 mg/kg/day orally for four weeks along with 3′-MeDAB, versus control, FIG. 12
  number of oval cells with strongly positive TGF-α observation, expressed with 3′-MeDAB: reduced
[2]; during one-year administration
  side effect such as dysfunction of liver and those with other retinoids: almost no side effect
[2]; long-term administration for one year
  recurrence after radical cure of hepatoma: significantly suppressed
[3]
  TGF-α observation in hepatic tissues surrounding the central vein, expressed by DEN: almost negative
[4]
  TGF-α observation of oval cells expressed by D-galactosamine hydrochloride: weakly positive

From patent publication US20090069424A1, “TGF-alpha expression inhibitors” (NIKKEN CHEMICALS CO., LTD., priority 2002, published 2009)
